Results from PubChem BioAssay (NCI).
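Assay format: 96-well plates, 48-hour exposure. GI50: concentration for 50% inhibition of growth. TGI denotes the concentration required for complete inhibition of growth.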

What was measured:
Assay in all cases: NCI-60 cell line screen, 48 h
786-0 renal = test system: 786-0 renal
A498 renal = test system: A498 renal
A549 NSCLC = test system: A549 NSCLC
ACHN renal = test system: ACHN renal
BT-549 breast = test system: BT-549 breast
CAKI-1 renal = test system: CAKI-1 renal
CCRF-CEM leukemia = test system: CCRF-CEM leukemia
COLO 205 colon = test system: COLO 205 colon
DU-145 prostate = test system: DU-145 prostate
EKVX NSCLC = test system: EKVX NSCLC
HCC-2998 colon = test system: HCC-2998 colon
HCT-116 colon = test system: HCT-116 colon
HCT-15 colon = test system: HCT-15 colon
HL-60(TB) leukemia = test system: HL-60(TB) leukemia
HOP-62 NSCLC = test system: HOP-62 NSCLC
HOP-92 NSCLC = test system: HOP-92 NSCLC
HS 578T breast = test system: HS 578T breast
HT29 colon = test system: HT29 colon
IGROV1 ovarian = test system: IGROV1 ovarian
K-562 leukemia = test system: K-562 leukemia
KM12 colon = test system: KM12 colon
LOX IMVI melanoma = test system: LOX IMVI melanoma
M14 melanoma = test system: M14 melanoma
MALME-3M melanoma = test system: MALME-3M melanoma
MCF7 breast = test system: MCF7 breast
MDA-MB-231 breast = test system: MDA-MB-231 breast
MDA-MB-435 = test system: MDA-MB-435
MOLT-4 leukemia = test system: MOLT-4 leukemia
NCI-H226 lung = test system: NCI-H226 lung
NCI-H23 lung = test system: NCI-H23 lung
NCI-H460 lung = test system: NCI-H460 lung
NCI-H522 lung = test system: NCI-H522 lung
NCI/ADR-RES ovarian = test system: NCI/ADR-RES ovarian
OVCAR-3 ovarian = test system: OVCAR-3 ovarian
OVCAR-4 ovarian = test system: OVCAR-4 ovarian
OVCAR-5 ovarian = test system: OVCAR-5 ovarian
OVCAR-8 ovarian = test system: OVCAR-8 ovarian
PC-3 prostate = test system: PC-3 prostate
RPMI-8226 leukemia = test system: RPMI-8226 leukemia
RXF 393 renal = test system: RXF 393 renal
SF-268 CNS = test system: SF-268 CNS
SF-295 CNS = test system: SF-295 CNS
SF-539 CNS = test system: SF-539 CNS
SK-MEL-2 melanoma = test system: SK-MEL-2 melanoma
SK-MEL-28 melanoma = test system: SK-MEL-28 melanoma
SK-MEL-5 melanoma = test system: SK-MEL-5 melanoma
SK-OV-3 ovarian = test system: SK-OV-3 ovarian
SN12C renal = test system: SN12C renal
SNB-19 CNS = test system: SNB-19 CNS
SNB-75 CNS = test system: SNB-75 CNS
SR leukemia = test system: SR leukemia
SW-620 colon = test system: SW-620 colon
T-47D breast = test system: T-47D breast
TK-10 renal = test system: TK-10 renal
U251 CNS = test system: U251 CNS
UACC-62 melanoma = test system: UACC-62 melanoma
UO-31 renal = test system: UO-31 renal

CCN1C(=O)N(CC)C2C1NN=C1SC(c3ccccc3)=CC(=O)N12 (stereo not given)
GI50 (786-0 renal): 472 nM | TGI (786-0 renal): > 100000 nM | GI50 (A498 renal): > 100000 nM | TGI (A498 renal): > 100000 nM | GI50 (A549 NSCLC): 1020 nM | TGI (A549 NSCLC): > 100000 nM | GI50 (ACHN renal): 660 nM | TGI (ACHN renal): > 100000 nM | GI50 (BT-549 breast): 330 nM | TGI (BT-549 breast): 25100 nM | GI50 (CAKI-1 renal): 357 nM | TGI (CAKI-1 renal): > 100000 nM | GI50 (CCRF-CEM leukemia): 428 nM | TGI (CCRF-CEM leukemia): > 100000 nM | GI50 (COLO 205 colon): 429 nM | TGI (COLO 205 colon): 2200 nM | GI50 (DU-145 prostate): 717 nM | TGI (DU-145 prostate): > 100000 nM | TGI (EKVX NSCLC): > 100000 nM | GI50 (HCC-2998 colon): 1540 nM | TGI (HCC-2998 colon): > 28200 nM | GI50 (HCT-116 colon): 388 nM | TGI (HCT-116 colon): > 100000 nM | GI50 (HCT-15 colon): 313 nM | TGI (HCT-15 colon): > 74900 nM | GI50 (HL-60(TB) leukemia): 308 nM | GI50 (HOP-62 NSCLC): 532 nM | TGI (HOP-62 NSCLC): > 100000 nM | GI50 (HOP-92 NSCLC): > 36300 nM | TGI (HOP-92 NSCLC): > 100000 nM | GI50 (HS 578T breast): 489 nM | TGI (HS 578T breast): > 100000 nM | GI50 (HT29 colon): 338 nM | GI50 (IGROV1 ovarian): 1090 nM | TGI (IGROV1 ovarian): > 100000 nM | GI50 (K-562 leukemia): 258 nM | TGI (K-562 leukemia): > 100000 nM | GI50 (KM12 colon): 344 nM | TGI (KM12 colon): > 85600 nM | GI50 (LOX IMVI melanoma): 562 nM | TGI (LOX IMVI melanoma): > 100000 nM | GI50 (M14 melanoma): 344 nM | TGI (M14 melanoma): > 100000 nM | GI50 (MALME-3M melanoma): 492 nM | TGI (MALME-3M melanoma): > 100000 nM | GI50 (MCF7 breast): 277 nM | TGI (MCF7 breast): > 100000 nM | GI50 (MDA-MB-231 breast): 2450 nM | TGI (MDA-MB-231 breast): > 100000 nM | GI50 (MDA-MB-435): 42.9 nM | TGI (MDA-MB-435): 176 nM | GI50 (MOLT-4 leukemia): 809 nM | TGI (MOLT-4 leukemia): > 100000 nM | GI50 (NCI-H226 lung): 561 nM | TGI (NCI-H226 lung): > 72000 nM | GI50 (NCI-H23 lung): 1220 nM | TGI (NCI-H23 lung): > 100000 nM | GI50 (NCI-H460 lung): 394 nM | TGI (NCI-H460 lung): > 36900 nM | GI50 (NCI-H522 lung): 228 nM | TGI (NCI-H522 lung): 772 nM | GI50 (NCI/ADR-RES ovarian): 385 nM | TGI (NCI/ADR-RES ovarian): > 100000 nM | GI50 (OVCAR-3 ovarian): 320 nM | TGI (OVCAR-3 ovarian): 1590 nM | GI50 (OVCAR-4 ovarian): 15700 nM | TGI (OVCAR-4 ovarian): > 100000 nM | GI50 (OVCAR-5 ovarian): 921 nM | TGI (OVCAR-5 ovarian): > 100000 nM | GI50 (OVCAR-8 ovarian): 1470 nM | TGI (OVCAR-8 ovarian): > 20400 nM | GI50 (PC-3 prostate): 515 nM | TGI (PC-3 prostate): > 100000 nM | GI50 (RPMI-8226 leukemia): 580 nM | TGI (RPMI-8226 leukemia): > 54300 nM | GI50 (RXF 393 renal): 198 nM | TGI (RXF 393 renal): 538 nM | GI50 (SF-268 CNS): 3050 nM | TGI (SF-268 CNS): > 100000 nM | GI50 (SF-295 CNS): 389 nM | TGI (SF-295 CNS): > 24900 nM | GI50 (SF-539 CNS): 375 nM | TGI (SF-539 CNS): 3030 nM | GI50 (SK-MEL-2 melanoma): 481 nM | TGI (SK-MEL-2 melanoma): > 100000 nM | GI50 (SK-MEL-28 melanoma): 872 nM | TGI (SK-MEL-28 melanoma): > 100000 nM | GI50 (SK-MEL-5 melanoma): 493 nM | TGI (SK-MEL-5 melanoma): 41800 nM | GI50 (SK-OV-3 ovarian): 545 nM | TGI (SK-OV-3 ovarian): > 56100 nM | GI50 (SN12C renal): 596 nM | TGI (SN12C renal): > 100000 nM | GI50 (SNB-19 CNS): 730 nM | TGI (SNB-19 CNS): > 100000 nM | GI50 (SNB-75 CNS): 210 nM | GI50 (SR leukemia): 140 nM | TGI (SR leukemia): > 100000 nM | GI50 (SW-620 colon): 349 nM | TGI (SW-620 colon): > 100000 nM | GI50 (T-47D breast): 286 nM | TGI (T-47D breast): > 100000 nM | GI50 (TK-10 renal): 53500 nM | TGI (TK-10 renal): > 100000 nM | GI50 (U251 CNS): 546 nM | TGI (U251 CNS): > 100000 nM | GI50 (UACC-62 melanoma): 343 nM | TGI (UACC-62 melanoma): > 100000 nM | GI50 (UO-31 renal): 605 nM | TGI (UO-31 renal): > 100000 nM
